From ChEMBL document CHEMBL4308841, “Synthesis, in vitro antiproliferative activity, and kinase inhibitory effects of pyrazole-containing diarylureas and diarylamides” (Eur J Med Chem, 2018)

Legend:
MOLT-4 = assay: Growth inhibition of human MOLT4 cells incubated for 48 hrs by sulforhodamine B assay; format: functional, cell-based; settings: MOLT-4, 48 h
SR [1] = assay: Growth inhibition of human SR cells incubated for 48 hrs by sulforhodamine B assay; format: functional, cell-based
SK-MEL-2 = assay: Growth inhibition of human SK-MEL-2 cells incubated for 48 hrs by sulforhodamine B assay; format: functional, cell-based; settings: SK-MEL-2, 48 h
OVCAR-8 = assay: Growth inhibition of human OVCAR8 cells incubated for 48 hrs by sulforhodamine B assay; format: functional, cell-based; settings: OVCAR-8, 48 h
CAKI-1 = assay: Growth inhibition of human Caki1 cells incubated for 48 hrs by sulforhodamine B assay; format: functional, cell-based; settings: CAKI-1, 48 h
NCI-H226 [2] = assay: Growth inhibition of human NCI-H226 cells assessed as cell growth at 0.01 uM incubated for 48 hrs by sulforhodamine B assay relative to control; format: functional; settings: NCI-H226, 48 h, read-out: Activity
HCC 2998 [3] = assay: Growth inhibition of human HCC2998 cells assessed as cell growth at 0.01 uM incubated for 48 hrs by sulforhodamine B assay relative to control; format: functional; settings: HCC 2998, 48 h, read-out: Activity
HCT-116 = assay: Growth inhibition of human HCT116 cells assessed as cell growth at 0.01 uM incubated for 48 hrs by sulforhodamine B assay relative to control; format: functional; settings: HCT-116, 48 h, read-out: Activity
RPMI-8226 = assay: Growth inhibition of human RPMI8226 cells assessed as cell growth at 0.1 uM incubated for 48 hrs by sulforhodamine B assay relative to control; format: functional; settings: RPMI-8226, 48 h, read-out: Activity
NCI-H226 [4] = assay: Growth inhibition of human NCI-H226 cells assessed as cell growth at 0.1 uM incubated for 48 hrs by sulforhodamine B assay relative to control; format: functional; settings: NCI-H226, 48 h, read-out: Activity
U-251 = assay: Growth inhibition of human U251 cells assessed as cell growth at 0.1 uM incubated for 48 hrs by sulforhodamine B assay relative to control; format: functional; settings: U-251, 48 h, read-out: Activity
OVCAR-5 = assay: Growth inhibition of human OVCAR5 cells assessed as cell growth at 0.1 uM incubated for 48 hrs by sulforhodamine B assay relative to control; format: functional; settings: OVCAR-5, 48 h, read-out: Activity
RXF 393 = assay: Growth inhibition of human RXF393 cells assessed as cell growth at 0.1 uM incubated for 48 hrs by sulforhodamine B assay relative to control; format: functional; settings: RXF 393, 48 h, read-out: Activity
BT-549 [5] = assay: Growth inhibition of human BT549 cells assessed as cell growth at 0.1 uM incubated for 48 hrs by sulforhodamine B assay relative to control; format: functional; settings: BT-549, 48 h, read-out: Activity
SR [6] = assay: Growth inhibition of human SR cells assessed as cell growth at 1 uM incubated for 48 hrs by sulforhodamine B assay relative to control; format: functional; settings: read-out: Activity
HCC 2998 [7] = assay: Growth inhibition of human HCC2998 cells assessed as cell growth at 1 uM incubated for 48 hrs by sulforhodamine B assay relative to control; format: functional; settings: HCC 2998, 48 h, read-out: Activity
SF-539 = assay: Growth inhibition of human SF539 cells assessed as cell growth at 1 uM incubated for 48 hrs by sulforhodamine B assay relative to control; format: functional; settings: SF-539, 48 h, read-out: Activity
SNB-19 = assay: Growth inhibition of human SNB19 cells assessed as cell growth at 1 uM incubated for 48 hrs by sulforhodamine B assay relative to control; format: functional; settings: SNB-19, 48 h, read-out: Activity
M14 = assay: Growth inhibition of human M14 cells assessed as cell growth at 1 uM incubated for 48 hrs by sulforhodamine B assay relative to control; format: functional; settings: M14, 48 h, read-out: Activity
OVCAR-3 = assay: Growth inhibition of human OVCAR3 cells assessed as cell growth at 1 uM incubated for 48 hrs by sulforhodamine B assay relative to control; format: functional; settings: OVCAR-3, 48 h, read-out: Activity
UO-31 = assay: Growth inhibition of human UO31 cells assessed as cell growth at 1 uM incubated for 48 hrs by sulforhodamine B assay relative to control; format: functional; settings: UO-31, 48 h, read-out: Activity
MCF7 [8] = assay: Growth inhibition of human MCF7 cells assessed as cell growth at 1 uM incubated for 48 hrs by sulforhodamine B assay relative to control; format: functional; settings: MCF7, 48 h, read-out: Activity
K562 = assay: Growth inhibition of human K562 cells assessed as cell growth at 100 uM incubated for 48 hrs by sulforhodamine B assay relative to control; format: functional; settings: K562, 48 h, read-out: Activity
HCC 2998 [9] = assay: Growth inhibition of human HCC2998 cells assessed as cell growth at 100 uM incubated for 48 hrs by sulforhodamine B assay relative to control; format: functional; settings: HCC 2998, 48 h, read-out: Activity
MDA-MB-435 = assay: Growth inhibition of human MDA-MB-435 cells assessed as cell growth at 100 uM incubated for 48 hrs by sulforhodamine B assay relative to control; format: functional; settings: MDA-MB-435, 48 h, read-out: Activity
A498 = assay: Growth inhibition of human A498 cells assessed as cell growth at 100 uM incubated for 48 hrs by sulforhodamine B assay relative to control; format: functional; settings: A498, 48 h, read-out: Activity
SN12C = assay: Growth inhibition of human SN12C cells assessed as cell growth at 100 uM incubated for 48 hrs by sulforhodamine B assay relative to control; format: functional; settings: read-out: Activity
MCF7 [10] = assay: Growth inhibition of human MCF7 cells assessed as cell growth at 100 uM incubated for 48 hrs by sulforhodamine B assay relative to control; format: functional; settings: MCF7, 48 h, read-out: Activity
BT-549 [11] = assay: Growth inhibition of human BT549 cells assessed as cell growth at 100 uM incubated for 48 hrs by sulforhodamine B assay relative to control; format: functional; settings: BT-549, 48 h, read-out: Activity
MDA-MB-468 = assay: Growth inhibition of human MDA-MB-468 cells assessed as cell growth at 100 uM incubated for 48 hrs by sulforhodamine B assay relative to control; format: functional; settings: MDA-MB-468, 48 h, read-out: Activity
[12] = read-out: LC50 (the source's name)
[13] = read-out: pLC50 (the source's name) (converted)

O=C(Nc1cccc(-n2cc(-c3ccncc3)c(-c3cc(O)cc(Cl)c3)n2)c1)Nc1ccc(Cl)c(C(F)(F)F)c1
GI50 (MOLT-4; read-out: GI50): 1.99 µM | CC50 (MOLT-4; [12]): > 100 µM | TGI (MOLT-4; read-out: TGI): 58.1 µM | GI50 (MOLT-4; read-out: pGI50 (converted)): 2 µM | CC50 (MOLT-4; [13]): > 100 µM | TGI (MOLT-4; read-out: pTGI (converted)): 5.75 µM | GI50 (SR [1]; read-out: GI50): 2.01 µM | CC50 (SR [1]; [12]): > 100 µM | TGI (SR [1]; read-out: TGI): 51 µM | GI50 (SR [1]; read-out: pGI50 (converted)): 2 µM | CC50 (SR [1]; [13]): > 100 µM | TGI (SR [1]; read-out: pTGI (converted)): 5.13 µM | GI50 (SK-MEL-2; read-out: GI50): 2.2 µM | CC50 (SK-MEL-2; [12]): 94.2 µM | TGI (SK-MEL-2; read-out: TGI): 45.5 µM | GI50 (SK-MEL-2; read-out: pGI50 (converted)): 2.24 µM | CC50 (SK-MEL-2; [13]): 9.33 µM | TGI (SK-MEL-2; read-out: pTGI (converted)): 4.57 µM | GI50 (OVCAR-8; read-out: GI50): 2.15 µM | CC50 (OVCAR-8; [12]): 50.1 µM | TGI (OVCAR-8; read-out: TGI): 55.5 µM | GI50 (OVCAR-8; read-out: pGI50 (converted)): 2.14 µM | CC50 (OVCAR-8; [13]): 79.4 µM | TGI (OVCAR-8; read-out: pTGI (converted)): 5.62 µM | GI50 (CAKI-1; read-out: GI50): 2.53 µM | CC50 (CAKI-1; [12]): > 100 µM | TGI (CAKI-1; read-out: TGI): 78.7 µM | GI50 (CAKI-1; read-out: pGI50 (converted)): 2.69 µM | CC50 (CAKI-1; [13]): > 100 µM | TGI (CAKI-1; read-out: pTGI (converted)): 7.94 µM | growth at 0.01 µM (NCI-H226 [2]): 97% | growth at 0.01 µM (HCC 2998 [3]): 97% | growth at 0.01 µM (HCT-116): 104% | growth at 0.1 µM (RPMI-8226): 101% | growth at 0.1 µM (NCI-H226 [4]): 95% | growth at 0.1 µM (U-251): 91% | growth at 0.1 µM (OVCAR-5): 91% | growth at 0.1 µM (RXF 393): 95% | growth at 0.1 µM (BT-549 [5]): 95% | growth at 1 µM (SR [6]): 57% | growth at 1 µM (HCC 2998 [7]): 106% | growth at 1 µM (SF-539): 91% | growth at 1 µM (SNB-19): 104% | growth at 1 µM (M14): 83% | growth at 1 µM (OVCAR-3): 91% | growth at 1 µM (UO-31): 84% | growth at 1 µM (MCF7 [8]): 91% | growth at 100 µM (K562): -9% | growth at 100 µM (HCC 2998 [9]): -88% | growth at 100 µM (MDA-MB-435): -93% | growth at 100 µM (A498): -35% | growth at 100 µM (SN12C): -32% | growth at 100 µM (MCF7 [10]): -43% | growth at 100 µM (BT-549 [11]): -93% | growth at 100 µM (MDA-MB-468): -29%

COc1cc(Cl)cc(-c2nn(-c3cccc(NC(=O)c4ccc(N5CCOCC5)c(C(F)(F)F)c4)c3)cc2-c2ccncc2)c1
GI50 (MOLT-4; read-out: GI50): 5.49 µM | CC50 (MOLT-4; [12]): > 100 µM | TGI (MOLT-4; read-out: TGI): > 100 µM | GI50 (MOLT-4; read-out: pGI50 (converted)): 5.5 µM | CC50 (MOLT-4; [13]): > 100 µM | TGI (MOLT-4; read-out: pTGI (converted)): > 100 µM | GI50 (SR [1]; read-out: GI50): 3.06 µM | CC50 (SR [1]; [12]): > 100 µM | TGI (SR [1]; read-out: TGI): > 100 µM | GI50 (SR [1]; read-out: pGI50 (converted)): 3.09 µM | CC50 (SR [1]; [13]): > 100 µM | TGI (SR [1]; read-out: pTGI (converted)): > 100 µM | GI50 (SK-MEL-2; read-out: GI50): 2.11 µM | CC50 (SK-MEL-2; [12]): > 100 µM | TGI (SK-MEL-2; read-out: TGI): > 100 µM | GI50 (SK-MEL-2; read-out: pGI50 (converted)): 26.3 µM | CC50 (SK-MEL-2; [13]): > 100 µM | TGI (SK-MEL-2; read-out: pTGI (converted)): > 100 µM | GI50 (OVCAR-8; read-out: GI50): 6.33 µM | CC50 (OVCAR-8; [12]): > 100 µM | TGI (OVCAR-8; read-out: TGI): > 100 µM | GI50 (OVCAR-8; read-out: pGI50 (converted)): 6.31 µM | CC50 (OVCAR-8; [13]): > 100 µM | TGI (OVCAR-8; read-out: pTGI (converted)): > 100 µM | GI50 (CAKI-1; read-out: GI50): 4.4 µM | CC50 (CAKI-1; [12]): > 100 µM | TGI (CAKI-1; read-out: TGI): > 100 µM | GI50 (CAKI-1; read-out: pGI50 (converted)): 4.37 µM | CC50 (CAKI-1; [13]): > 100 µM | TGI (CAKI-1; read-out: pTGI (converted)): > 100 µM | growth at 0.01 µM (NCI-H226 [2]): 94% | growth at 0.01 µM (HCC 2998 [3]): 95% | growth at 0.01 µM (HCT-116): 97% | growth at 0.1 µM (RPMI-8226): 107% | growth at 0.1 µM (NCI-H226 [4]): 98% | growth at 0.1 µM (U-251): 95% | growth at 0.1 µM (OVCAR-5): 78% | growth at 0.1 µM (RXF 393): 100% | growth at 0.1 µM (BT-549 [5]): 100% | growth at 1 µM (SR [6]): 52% | growth at 1 µM (HCC 2998 [7]): 100% | growth at 1 µM (SF-539): 57% | growth at 1 µM (SNB-19): 92% | growth at 1 µM (M14): 58% | growth at 1 µM (OVCAR-3): 100% | growth at 1 µM (UO-31): 52% | growth at 1 µM (MCF7 [8]): 90% | growth at 100 µM (K562): 2% | growth at 100 µM (HCC 2998 [9]): -5% | growth at 100 µM (MDA-MB-435): 42% | growth at 100 µM (A498): 24% | growth at 100 µM (SN12C): 55% | growth at 100 µM (MCF7 [10]): 23% | growth at 100 µM (BT-549 [11]): 49% | growth at 100 µM (MDA-MB-468): 17%
